ChEMBL document CHEMBL4610052, “Application of tandem biotransformation for biosynthesis of new pentacyclic triterpenoid derivatives with neuroprotective effect” (Bioorg Med Chem Lett, 2020)

Tested on: PC-12
Test: Neuroprotective activity against CoCl2-induced neuronal injury in rat PC12 cells
Type: functional, cell-based

SMILES	EC50 [µM]
CC1(C)[C@@H](O)CC[C@]2(C)[C@H]3C(=O)C=C4[C@@H]5C[C@@](C)(C(=O)O[C@@H]6O[C@H](CO)[C@@H](O)[C@H](O)[C@H]6O)CC[C@]5(C)CC[C@@]4(C)[C@]3(C)[C@@H](O)C[C@@H]12	> 40
CC1(C)[C@@H](O)CC[C@]2(C)[C@H]3CC=C4[C@@H]5C[C@](C)(C(=O)O)[C@@H](O)C[C@]5(C(=O)O)CC[C@@]4(C)[C@]3(C)[C@@H](O)C[C@@H]12	0.48
CC1(C)[C@@H](O)CC[C@]2(C)[C@H]3C(=O)C=C4[C@@H]5C[C@@](C)(C(=O)O[C@@H]6O[C@H](CO)[C@@H](O)[C@H](O)[C@H]6O)CC[C@]5(C)CC[C@@]4(C)[C@]3(C)CC[C@@H]12	> 40
CC1(C)C[C@H]2C3=CC[C@@H]4[C@@]5(C)CC[C@H](O[C@H]6O[C@@H](CO)[C@H](O)[C@@H](O)[C@@H]6O)C(C)(C)[C@@H]5C[C@H](O)[C@@]4(C)[C@]3(C)CC[C@@]2(C(=O)O)C[C@@H]1O	> 40
CC1(C)[C@@H](O)CC[C@]2(C)[C@H]3C(=O)C=C4[C@@H]5C[C@@](C)(C(=O)O)CC[C@]5(C)CC[C@@]4(C)[C@]3(C)[C@@H](O)C[C@@H]12	1.76
CC1(C)[C@@H](O)CC[C@]2(C)[C@H]3CC=C4[C@@H]5C[C@](C)(CO)[C@@H](O)C[C@]5(C(=O)O)CC[C@@]4(C)[C@]3(C)[C@@H](O)C[C@@H]12	7.74
CC1(C)C[C@H]2C3=CC[C@@H]4[C@@]5(C)CC[C@H](O)C(C)(C)[C@@H]5C[C@H](O)[C@@]4(C)[C@]3(C)CC[C@@]2(C(=O)O)C[C@@H]1O	> 40
CC1(C)[C@@H](O)CC[C@]2(C)[C@H]3C(=O)C=C4[C@@H]5C[C@@](C)(C(=O)O)CC[C@]5(C)CC[C@@]4(C)[C@]3(C)CC[C@@H]12 [ENOXOLONE]	0.89
CC1(C)CC[C@]2(C(=O)O)CC[C@]3(C)C(=CC[C@@H]4[C@@]5(C)CC[C@H](O)C(C)(C)[C@@H]5CC[C@]43C)[C@@H]2C1 [OLEANOLIC_ACID]	8.55
OC[C@H]1O[C@@H](OCCc2ccc(O)cc2)[C@H](O)[C@@H](O)[C@@H]1O [SALIDROSIDE]	0.21
